Here are results for 7 compounds from patent US20060241297A1, “Pyridinylamino-pyrimidine derivatives as protein kinase inhibitors” (Cyclacel Limited, priority 2003, published 2006).

Test [1] concerns the target CDK2/cyclin E (Homo sapiens, UniProt P24941). The experiment in a line: Kinase assay, incorporation of radioactive phosphate from ATP. Format: biochemical. The following applies: 100 μM ATP, 30° C.; read-out: Kinase inhibition Ki CDK2/cyclin E. The protocol: (§1) The compounds from the examples above were investigated for their ability to inhibit the enzymatic activity of various protein kinases. This was achieved by measurement of incorporation of radioactive phosphate from ATP into appropriate polypeptide substrates. Recombinant protein kinases and kinase complexes were produced or obtained commercially. Assays were performed using 96-well plates and appropriate assay buffers (typically 25 mM β-glycerophosphate, 20 mM MOPS, 5 mM EGTA, 1 mM DTT, 1 mM […], pH 7.4), into which were added 2-4 μg of active enzyme with appropriate substrates. The reactions were initiated by addition of Mg/ATP mix (15 mM MgCl2+100 μM ATP with 30-50 kBq per well of [γ-^32P]-ATP) and mixtures incubated as required at 30° C. Reactions were stopped on ice, followed by filtration through p81 filterplates or GF/C filterplates (Whatman Polyfiltronics, Kent, UK). After washing 3 times with 75 mM aq orthophosphoric acid, plates were dried, scintillant added and incorporated radioactivity measured in a scintillation counter (TopCount, Packard Instruments, Pangboume, Berks, UK). Compounds for kinase assay were made up as 10 mM stocks in DMSO and diluted into 10% DMSO in assay buffer. Data was analysed using curve-fitting software (GraphPad Prism version 3.00 for Windows, GraphPad Software, San Diego Calif. USA) to determine IC50 values (concentration of test compound which inhibits kinase activity by 50%.).

Test [2] deals with CDK4/cyclin D1 (Homo sapiens, UniProt P11802). The test is described as above. Format: biochemical. Particulars: 100 μM ATP, 30° C.; read-out: Kinase inhibition Ki CDK4/cyclin D1. The protocol:
as §1

In test [3] the target is CDK9/cyclin T1 (Homo sapiens, UniProt P50750). The test is described as above. It is filed as biochemical. The following applies: 100 μM ATP, 30° C.; read-out: Kinase inhibition Ki CDK9/cyclin T1. The protocol: as §1
Chain of CDK9/cyclin T1 (P50750 whole entry): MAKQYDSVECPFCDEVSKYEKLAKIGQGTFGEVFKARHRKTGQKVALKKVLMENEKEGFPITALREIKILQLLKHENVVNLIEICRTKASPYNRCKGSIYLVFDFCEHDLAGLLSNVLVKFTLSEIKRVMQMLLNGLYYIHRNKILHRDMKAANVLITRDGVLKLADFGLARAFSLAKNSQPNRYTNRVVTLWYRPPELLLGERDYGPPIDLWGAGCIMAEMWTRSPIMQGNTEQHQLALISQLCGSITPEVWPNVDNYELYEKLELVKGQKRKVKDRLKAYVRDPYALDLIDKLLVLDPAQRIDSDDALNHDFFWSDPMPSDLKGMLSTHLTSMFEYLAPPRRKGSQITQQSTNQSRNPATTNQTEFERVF
Chain of CDK9/cyclin T1 (O60563 whole entry partner): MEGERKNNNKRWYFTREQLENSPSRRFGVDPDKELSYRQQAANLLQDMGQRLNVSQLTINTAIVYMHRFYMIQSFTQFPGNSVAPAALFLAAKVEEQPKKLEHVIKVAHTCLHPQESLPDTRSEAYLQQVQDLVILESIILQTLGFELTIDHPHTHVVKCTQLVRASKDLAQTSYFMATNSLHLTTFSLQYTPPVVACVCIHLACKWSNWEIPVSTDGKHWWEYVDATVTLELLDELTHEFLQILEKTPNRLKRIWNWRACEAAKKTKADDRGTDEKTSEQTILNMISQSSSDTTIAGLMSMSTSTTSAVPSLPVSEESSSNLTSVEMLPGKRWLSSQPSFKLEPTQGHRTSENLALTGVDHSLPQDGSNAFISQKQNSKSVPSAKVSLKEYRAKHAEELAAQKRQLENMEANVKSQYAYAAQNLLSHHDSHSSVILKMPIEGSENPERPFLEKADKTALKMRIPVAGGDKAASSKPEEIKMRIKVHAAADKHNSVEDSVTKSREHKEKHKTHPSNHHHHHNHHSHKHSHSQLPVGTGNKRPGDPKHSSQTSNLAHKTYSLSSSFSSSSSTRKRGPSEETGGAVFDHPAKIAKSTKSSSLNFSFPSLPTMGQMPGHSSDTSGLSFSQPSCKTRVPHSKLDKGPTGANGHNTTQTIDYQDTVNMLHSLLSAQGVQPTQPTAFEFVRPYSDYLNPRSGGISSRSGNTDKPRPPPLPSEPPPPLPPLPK
The subject of test [4] is A549. Description: 72-h MTT cytotoxicity assay. The following applies: Homo sapiens. It is filed as cell-based. The protocol:
(§2) The compounds from the examples above were subjected to a standard cellular proliferation assay using human tumour cell lines obtained from the ATCC (American Type Culture Collection, 10801 University Boulevard, Manessas, Va. 20110-2209, USA). Standard 72-h MTT (thiazolyl blue; 3-[4,5-dimethylthiazol-2-yl]-2,5-diphenyltetrazolium bromide) assays were performed. In short: cells were seeded into 96-well plates according to doubling time and incubated overnight at 37° C. Test compounds were made up in DMSO and a 1/3 dilution series prepared in 100 μL cell media, added to cells (in triplicates) and incubated for 72 ho at 37° C. MTT was made up as a stock of 5 mg/mL in cell media and filter-sterilised. Media was removed from cells followed by a wash with 200 μL PBS. MTT solution was then added at 20 μL per well and incubated in the dark at 37° C. for 4 h. MTT solution was removed and cells again washed with 200 μL PBS. MTT dye was solubilised with 200 μL per well of DMSO with agitation. Absorbance was read at 540 nm and data analysed using curve-fitting software (GraphPad Prism version 3.00 for Windows, GraphPad Software, San Diego Calif. USA) to determine IC50 values (concentration of test compound which inhibits cell growth by 50%). Various modifications and variations of the described aspects of the invention will be apparent to those skilled in the art without departing from the scope and spirit of the invention. Although the invention has been described in connection with specific preferred embodiments, it should be understood that the invention as claimed should not be unduly limited to such specific embodiments. Indeed, various modifications of the described modes of carrying out the invention which are obvious to those skilled in the relevant fields are intended to be within the scope of the following claims.

Test [5] relates to HT29. Description: 72-h MTT cytotoxicity assay. It is filed as cell-based. Particulars: Homo sapiens, HT-29. The protocol: as §2
Test [6] concerns Saos-2. Description: 72-h MTT cytotoxicity assay. It is filed as cell-based. The following applies: Homo sapiens. The protocol:
as §2

Test [7] concerns transformed human cell lines (A549, HT29, Saos-2). The experiment in a line: 72-h MTT cytotoxicity assay, average over cell lines. Format: cell-based. The protocol: as §2
Test [8] has as its target CDK1/cyclin B (Homo sapiens, UniProt P06493). The experiment in a line: Kinase assay, incorporation of radioactive phosphate from ATP. Format: biochemical. The following applies: 100 μM ATP, 30° C.; read-out: Kinase inhibition Ki CDK1/cyclin B. The method, then: as §1
Test [9] has as its target CDK2/cyclin A (Homo sapiens, UniProt P24941). Described as above. The following applies: 100 μM ATP, 30° C.; read-out: Kinase inhibition Ki CDK2/cyclin A. It is filed as biochemical. The protocol: as §1
Test [10] deals with CDK7/cyclin H (Homo sapiens, UniProt P50613). Described as above. It is filed as biochemical. Particulars: 100 μM ATP, 30° C.; read-out: Kinase inhibition Ki CDK7/cyclin H. The protocol: as §1
Chain of CDK7/cyclin H (P50613 whole entry): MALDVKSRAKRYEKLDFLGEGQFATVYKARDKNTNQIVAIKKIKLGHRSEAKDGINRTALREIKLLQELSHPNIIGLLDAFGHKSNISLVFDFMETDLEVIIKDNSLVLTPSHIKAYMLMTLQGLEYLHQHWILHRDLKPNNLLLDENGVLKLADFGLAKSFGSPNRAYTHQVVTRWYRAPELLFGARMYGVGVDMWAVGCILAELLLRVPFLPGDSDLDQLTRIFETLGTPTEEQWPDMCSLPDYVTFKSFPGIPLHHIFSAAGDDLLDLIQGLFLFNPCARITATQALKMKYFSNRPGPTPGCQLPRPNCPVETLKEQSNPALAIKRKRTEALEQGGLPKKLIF
Chain of CDK7/cyclin H (P51946 whole entry partner): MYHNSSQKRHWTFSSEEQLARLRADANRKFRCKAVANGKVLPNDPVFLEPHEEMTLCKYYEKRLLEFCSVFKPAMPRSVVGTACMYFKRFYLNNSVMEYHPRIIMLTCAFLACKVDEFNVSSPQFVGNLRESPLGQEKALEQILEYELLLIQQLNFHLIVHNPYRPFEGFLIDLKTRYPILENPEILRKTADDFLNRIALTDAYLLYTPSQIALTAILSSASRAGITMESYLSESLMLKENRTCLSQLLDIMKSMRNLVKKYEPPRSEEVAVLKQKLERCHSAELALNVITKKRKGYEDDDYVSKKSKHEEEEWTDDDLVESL
The target in test [11] is GSK3β (Homo sapiens, UniProt P49841). Described as above. Format: biochemical. The following applies: 100 μM ATP, 30° C.; read-out: Kinase inhibition Ki GSK3β. The method, then:
as §1

The mark [12] stands for this setting: average of A549, HT29, Saos-2, read-out: 72-h MTT IC50 Average.
Setting [13] is: in vitro, read-out: IC50 value (average) against one or more transformed human cell lines, 72-h MTT cytotoxicity assay.

Where two headings read alike, the source gives them in different places. Where only a bound is given, the exact number is not on record here.

Chain of CDK1/cyclin B (P06493 whole entry): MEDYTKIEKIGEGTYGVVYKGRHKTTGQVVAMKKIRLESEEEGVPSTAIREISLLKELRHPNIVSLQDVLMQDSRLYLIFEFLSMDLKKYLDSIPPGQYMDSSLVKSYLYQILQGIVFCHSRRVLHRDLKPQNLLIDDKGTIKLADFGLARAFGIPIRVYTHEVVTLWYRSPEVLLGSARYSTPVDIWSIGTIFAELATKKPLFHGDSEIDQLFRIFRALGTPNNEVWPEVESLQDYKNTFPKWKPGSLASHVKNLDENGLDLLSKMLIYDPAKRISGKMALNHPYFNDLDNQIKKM
Chain of CDK1/cyclin B (P14635 whole entry partner): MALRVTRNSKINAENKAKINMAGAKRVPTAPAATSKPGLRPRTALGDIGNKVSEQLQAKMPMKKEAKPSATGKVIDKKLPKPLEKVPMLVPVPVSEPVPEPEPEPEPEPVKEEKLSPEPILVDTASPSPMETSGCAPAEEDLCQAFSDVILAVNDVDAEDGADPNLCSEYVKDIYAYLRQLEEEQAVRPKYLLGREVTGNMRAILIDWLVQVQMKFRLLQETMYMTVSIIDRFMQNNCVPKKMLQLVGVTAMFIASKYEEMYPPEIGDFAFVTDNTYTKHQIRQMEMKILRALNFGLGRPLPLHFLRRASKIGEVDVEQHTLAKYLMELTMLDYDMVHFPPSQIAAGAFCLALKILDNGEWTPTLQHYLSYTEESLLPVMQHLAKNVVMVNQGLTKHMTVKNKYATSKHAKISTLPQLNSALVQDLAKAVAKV
Chain of GSK3β (P49841 whole entry): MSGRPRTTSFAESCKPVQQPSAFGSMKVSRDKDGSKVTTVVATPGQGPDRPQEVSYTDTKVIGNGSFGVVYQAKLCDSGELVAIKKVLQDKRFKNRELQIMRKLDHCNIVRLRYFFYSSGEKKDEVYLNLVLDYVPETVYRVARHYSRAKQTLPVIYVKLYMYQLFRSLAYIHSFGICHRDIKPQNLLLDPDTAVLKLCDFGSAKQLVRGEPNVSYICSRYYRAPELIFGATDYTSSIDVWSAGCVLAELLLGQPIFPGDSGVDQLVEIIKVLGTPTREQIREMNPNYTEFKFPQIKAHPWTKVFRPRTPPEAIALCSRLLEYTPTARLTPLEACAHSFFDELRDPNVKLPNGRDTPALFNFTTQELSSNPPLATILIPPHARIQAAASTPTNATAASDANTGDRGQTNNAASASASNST
Chain of CDK4/cyclin D1 (P11802 whole entry): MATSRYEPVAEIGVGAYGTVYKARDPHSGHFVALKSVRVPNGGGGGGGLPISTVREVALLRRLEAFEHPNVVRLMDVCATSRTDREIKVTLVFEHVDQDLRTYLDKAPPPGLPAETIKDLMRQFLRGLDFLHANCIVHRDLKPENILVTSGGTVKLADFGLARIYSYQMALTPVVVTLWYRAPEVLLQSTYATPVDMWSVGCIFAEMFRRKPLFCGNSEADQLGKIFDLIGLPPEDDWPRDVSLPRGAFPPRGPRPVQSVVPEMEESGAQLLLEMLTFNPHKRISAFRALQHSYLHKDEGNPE
Chain of CDK4/cyclin D1 (P24385 whole entry partner): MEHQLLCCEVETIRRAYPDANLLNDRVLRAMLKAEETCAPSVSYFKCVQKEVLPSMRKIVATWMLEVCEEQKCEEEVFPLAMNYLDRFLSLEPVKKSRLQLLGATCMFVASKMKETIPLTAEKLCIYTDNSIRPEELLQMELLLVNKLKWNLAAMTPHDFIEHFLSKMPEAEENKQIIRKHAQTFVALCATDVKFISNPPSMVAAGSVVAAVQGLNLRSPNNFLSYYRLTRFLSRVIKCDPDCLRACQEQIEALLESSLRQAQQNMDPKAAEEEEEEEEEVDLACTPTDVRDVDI

Consider `Cc1nc(C)c(-c2ccnc(Nc3cccnc3)n2)s1` [Compound 1, [4-(2,4-Dimethyl-thiazol-5-yl)-pyrimidin-2-yl]-pyridin-3-yl-amine], for which the Ki in test [1] amounted to 110 nM; in test [2], 340 nM; in [3], 80 nM. Further, the IC50 was 3200 nM in [4]; 3700 nM in [5]; 3700 nM in test [6]; 3600 ± 300 nM in [7] (setting [12]); below 10000 nM in [7] (setting [13]).

Consider `COc1ccc(Nc2nccc(-c3sc(N)nc3C)n2)cn1` [Compound 5, [4-(2-Amino-4-methyl-thiazol-5-yl)-pyrimidin-2-yl]-(6-methoxy-pyridin-3-yl)-amine], for which the Ki in test [8] amounted to 5500 nM; in test [9], 950 nM; in [1] it was 70 nM; in [2] it was 60 nM; in test [10] it was 710 nM; in [3] it was 5 nM. Also, in [11], the Ki amounted to 350 nM. Further, the IC50 is 3500 nM in [4]; 4000 nM in [5]; 3100 nM in test [6]; 3500 ± 400 nM in test [7] (setting [12]); below 10000 nM in [7] (setting [13]).

For `CCn1c(C)c(-c2ccnc(Nc3ccc(OC)nc3)n2)sc1=O` [Compound 11, 3-Ethyl-5-[2-(6-methoxy-pyridin-3-ylamino)-pyrimidin-4-yl]-4-methyl-3H-thiazol-2-one], the Ki in test [8] worked out at 3400 nM; in test [9] it was 370 nM; in [1], 110 nM; in test [2], 1200 nM; in [10], 230 nM; in [3] it was 27 nM. Also, the Ki in test [11] was found to be 13 nM.

Regarding `CNc1nc(C)c(-c2ccnc(Nc3ccc(N4CCN(C)CC4)nc3)n2)s1` [Compound 15, [4-(4-Methyl-2-methylamino-thiazol-5-yl)-pyrimidin-2-yl]-[6-(4-methyl-piperazin-1-yl)-pyridin-3-yl]-amine], the Ki in [9] is 1500 nM; in [2], 80 nM; in [10], 280 nM; in [3], 80 nM; in [11], 2900 nM.

On to `Cc1c(-c2ccnc(Nc3ccc(Cl)nc3)n2)sc(=O)n1C` [Compound 4, 5-[2-(6-chloro-pyridin-3-ylamino)-pyrimidin-4-yl]-3,4-dimethyl-3H-thiazol-2-one], for which the Ki in [8] is 1500 nM; in test [1], 140 nM; in test [3], 21 nM; in test [11], 11 nM. For the same compound, the IC50 was found to be 1100 nM in test [4], 600 nM in test [5], 1700 nM in test [6] and 1100 ± 600 nM in test [7] (setting [12]).

Consider `COc1ccc(Nc2nccc(-c3sc(C)nc3C)n2)cn1` [Compound 6, [4-(2,4-Dimethyl-thiazol-5-yl)-pyrimidin-2-yl]-(6-methoxy-pyridin-3-yl)-amine], for which the Ki turned out to be 2800 nM in test [8]; 1400 nM in test [9]; 130 nM in test [1]; 460 nM in [2]; 1400 nM in test [10]; 280 nM in [3]. Further, the IC50 in test [4] was 5100 nM; in [5], 1400 nM; in test [6], 7500 nM; in test [7] (setting [12]), 4600 ± 3100 nM; in test [7] (setting [13]), below 10000 nM.

On to `COCCNc1nc(C)c(-c2ccnc(Nc3ccc(OC)nc3)n2)s1` [Compound 13, {4-[2-(2-Methoxy-ethylamino)-4-methyl-thiazol-5-yl]-pyrimidin-2-yl}-(6-methoxy-pyridin-3-yl)-amine], for which the Ki was determined as 2300 nM in test [8]; 950 nM in [9]; 250 nM in test [1]; 250 nM in [2]; 650 nM in test [10]; 120 nM in test [3]. For the same compound, the Ki in test [11] worked out at 100 nM.
